Earlier results on 5 compounds are cited in article PMC9042378 (RSC Advances, 2021).

The series relates to Tyr.
Consider `O=C1c2c(O)cc(O)cc2O[C@H](c2cc(O)c(O)c(O)c2)[C@H]1O` [dihydromyricetin], for which the Tyr inhibition type entry is “Mixed inhibition”.
As to `O=C(O[C@@H]1Cc2c(O)cc(O)cc2O[C@@H]1c1ccc(O)c(O)c1)c1cc(O)c(O)c(O)c1` [epicatechin gallate], the Tyr inhibition type result is given as “Mixed inhibition”.
Turning to `O=c1cc(CO)occ1O` [kojic acid], the Tyr inhibition type result is on record as “Mixed inhibition”.
Take `CCC(C)C(=O)c1c(O)c(Cc2c(O)c(C)c(O)c(C(=O)C(C)C)c2O)c(O)c2c1OC(C)(C)C=C2` (centres unmarked) [mallotophilippen A]: the Tyr inhibition type entry is “Mixed inhibition”.
For the compound mallotophilippen B, the Tyr inhibition type entry is listed as “Mixed inhibition”.
